Assay results: patent US10780174B2, “Lipid-linked prodrugs” (The University of British Columbia, priority 2015, dated 2020)
Entries after “also recorded” stand apart in the source; their conditions may differ. Like-named read-outs stand apart in the source and are kept apart here.

Assays:
[1] = test system: immunostimulatory effects of LNP-CpG (plasma cytokines); assay: In vivo immune suppression by LD-DEX prodrugs, LNP-CpG model; set-up: species or system C57Bl/6 mice; conditions: mice, i.v., 10 mg/kg of CpG, 2 h post injection
Experimental: (§1) 6-8 Weeks old female C57Bl/6 mice (Charles River Laboratories™, Wilmington, Mass.) were injected intravenously with lipid nanoparticles containing CpG DNA oligonucleotides (10 mg/kg), mRNA (3 mg/kg) or plasmid DNA (pDNA) (1 mg/kg). Animals were euthanized 2 hours post-injection and blood was collected via intracardiac or saphenous sampling. Plasma was separated from whole blood by centrifugation and analyzed for proinflammatory cytokines using the Mesoscale Proinflammatory Multiplex™ kit (Rockville, Md.) according to manufacturer's instruction. All procedures were approved by the Animal Care Committee at the University of British Columbia and were performed in accordance with guidelines established by the Canadian Council on Animal Care.

[2] = In vitro dissociation of lipid-linked prodrugs from LNP in human plasma; type: in vitro ADME; conditions: human plasma over 24 h, 37° C., PC-Chol LNP or ionizable LNP
Experimental: LNP were incubated for 0, 3, 5 and 24 h at 37° C. in 400 μL of sterile human plasma (Cedarlane™, Burlington, Ontario) at a final lipid concentration of 1.2 mM. At the various time-points, samples were loaded onto a 1.5×27 cm Sepharose CL-4B column (Sigma-Aldrich™, St. Louis, Mo.). 30×2 mL fractions were collected. Three volumes of methanol/acetonitrile (1:1) were added to each fraction and analyzed by UHPLC to determine the residual LD-DEX/DTX as described above.

[3] = test system: purified porcine esterase; assay: In vitro degradation of lipid-linked prodrugs in LNP, purified esterase in PBS; conditions: for prodrug degradation over 24 h in purified esterase: LNP, 0, 2, 4 and 24 h; for release of active drug (UPLC chromatogram) in purified esterase: 24 h incubation
[4] = In vitro degradation of lipid-linked prodrugs in LNP, mouse plasma; type: in vitro ADME; conditions: for prodrug degradation over 24 h in mouse plasma: LNP, 0, 2, 4 and 24 h; for prodrug cleavage/degradation after 1 h in plasma: 37° C., mouse plasma; for release of active drug (UPLC chromatogram) in mouse plasma: 24 h incubation
Experimental: (§2) Quantitation of prodrugs by HPLC: LD-DEX/DTX were quantified by ultra high-pressure liquid chromatography (UHPLC) using a Waters Acquity™ UPLC system equipped with a photodiode array detector (PDA) and evaporative light scattering (ELS) detector; Empower™ data acquisition software version 3.0 was used (Waters™, USA). Separations were performed using a Waters Acquity™ BEH C18 column (1.7 μm, 2.1×100 mm) at a flow rate of 0.5 ml/min, with mobile phases A and B consisting of methanol/10 mM ammonium bicarbonate (80/20% v/v) and methanol/acetonitrile (80/20% v/v), respectively. The mobile phases were delivered at a programmed linear gradient (45%-80% B in 1 min then to 99% B at 2 min) at a column temperature of 55° C. The analyte was measured by PDA (at a wavelength of 239 nm) and ELS detector against calibration standard curves. For the analysis of LD-DEX/DTX breakdown to active compound, linear gradients of 20/80% to 100/0% (acetonitrile/water, v/v) over 7 min were used.
To determine the biodegradability of the dexamethasone or docetaxel prodrugs (LD-DEX/DTX), 1 mg/mL LNP was incubated in mouse plasma (Cedarlane™, Burlington, Ontario) or PBS supplemented with 10 U of purified esterase (Sigma-Aldrich™, St. […] Post incubation, four volumes of chloroform/methanol (2:1) was added and the mixture was vortex mixed. Samples were centrifuged at 13,000 g for 5 minutes and the upper phase was discarded. The remaining organic phase was dried down under vacuum and the resulting lipid extract was dissolved in methanol/acetonitrile (1:1). Quantity of parent LD-DEX/DTX compound was determined by ultra high pressure liquid chromatography on a Waters Acquity™ H-Class UPLC System™ equipped with a BEH C18 column and a photodiode array detector.

[5] = Prodrug incorporation (entrapment) in lipid nanoparticles, UHPLC; type: physicochemical; conditions: for % Entrapment PC-Chol LNP: LD-DEX prodrug in PC-Chol LNP; for % Entrapment [ionizable LNP]: LD-DEX prodrug in ionizable LNP
Experimental: (§3) Preparation of LNP Systems: PC-Chol LNP systems were prepared by rapidly mixing POPC, cholesterol, lipid-linked prodrug and PEG-DMPE (in molar ratio of 49/39/10/2) dissolved in ethanol with phosphate-buffered saline using a T-junction mixer. Formulations were dialyzed against phosphate-buffered saline to remove residual ethanol and to raise the pH to 7.4. PC-TO and ionizable LNP systems were prepared in the same way except that the lipid compositions for these systems are: POPC, triolein, lipid-linked prodrug and PEG-DSPE (in molar ration of 19/70/10/1), and ionizable lipid, DSPC, cholesterol, lipid-linked prodrug and PEG-DMPE (in molar ration of 40/10/38.5/10/1.5), respectively.
as §2

[6] = Particle size and polydispersity of LNP containing prodrug (dynamic light scattering); type: physicochemical; conditions: PDI in brackets; for Particle size (PDI) PC-Chol LNP: LD-DEX prodrug in PC-Chol LNP; for Particle size (PDI) [ionizable LNP]: LD-DEX prodrug in ionizable LNP
Experimental: as §3
Characterization of LNP: Particle size was determined by dynamic light scattering using a Malvern Zetasizer Nano ZS™ (Malvern, UK) following buffer exchange into phosphate-buffered saline. Number-weighted size and distribution data was used. Lipid concentrations were determined by measuring total cholesterol using the Cholesterol E enzymatic assay kit from Wako Chemicals USA™ (Richmond, Va.). The morphology of LNP formulations containing LD-DEX was analyzed by cryogenic-transmission electron microscopy (cryoTEM) as described previously [Leung et al. (2012)].

[7] = test system: IL1β expression in RAW 264.7 mouse macrophage cells; assay: In vitro immune suppression, LPS-treated RAW 264.7 cells, IL1β qRT-PCR; type: cell-based; conditions: 2 ng/mL LPS, 4 h
Experimental: RAW 264.7 mouse macrophage cells were seeded at 250,000 cells per mL on 12-well plates and incubated at 37° C. overnight. Lipopolysaccharide (LPS) was dissolved in phosphate buffered saline at a concentration of 2 μg/ml. Cells were treated with lipid nanoparticles containing LD-DEX prodrugs and 2 ng/ml of LPS for 4 hours. This LPS concentration was chosen due to its ability to increase IL1β expression approximately 1000 times as compared to untreated cells. At the end of the incubation period, culture medium was aspirated and cellular RNA was extracted using the Purelink RNA™ extraction kit according to manufacturer's protocol (Life Technologies™, Burlington, ON). The concentration of extracted RNA was determined using a Nanodrop Lite™ (Thermo Fisher™). 1 μg of RNA was converted to cDNA using the High Capacity cDNA Reverse Transcription kit (Life Technologies™, Burlington, ON). In order to validate the sample preparation, a no template control and a negative reverse transcriptase control were included. The cDNA was then quantified using comparative real-time qPCR where the Ct (threshold cycle) values are converted to relative quantity using the 2-ΔΔCT method. The primer-probe sets were designed to bind to cDNA of Interleukin-1β(IL1β). Hypoxanthine-guanine phosphoribosyltransferase (HPRT) was chosen as the endogenous normalizer gene, which is known to maintain consistent levels with varying treatments.

[8] = test system: immunostimulatory effects of LNP-mRNA (plasma cytokines); assay: In vivo immune suppression by LD-DEX prodrugs, LNP-mRNA model; set-up: species or system C57Bl/6 mice; conditions: mice, 3 mg/kg of mRNA, 2 h post injection
Experimental: as §1

[9] = test system: purified porcine esterase; conditions: pig, 1 mg/mL LNP
[10] = test system: immunostimulatory effects of LNP-pDNA (plasma cytokines); assay: In vivo immune suppression by LD-DEX prodrugs, LNP-pDNA model; set-up: species or system C57Bl/6 mice; conditions: mice, i.v., 1 mg/kg of pDNA, 2 h post injection
Experimental: as §1

CCCCC/C=C\C/C=C\CCCCCCCC(=O)OC[C@H](COC(=O)CCC(=O)OCC(=O)[C@@]1(O)[C@H](C)C[C@H]2[C@@H]3CCC4=CC(=O)C=C[C@]4(C)[C@@]3(F)[C@@H](O)C[C@@]21C)OC(=O)CCCCCCC/C=C\C/C=C\CCCCC [LD02-DEX, 2,3-dilinoleoyloxypropyl (2-((8S,9R,10S,11S,13S,14S,16R,17R)-9-fluoro-11,17-dihydroxy-10,13,16-trimethyl-3-oxo-6,7,8,9,10,11,12,13,14,15,16,17-dodecahydro-3H-cyclopenta[a]phenanthren-17-yl)-2-oxoethyl) succinate]
plasma TNFα and KC/GRO levels versus control LNP-CpG [1]: marked reduction in cytokine levels | prodrug dissociation rate from LNP [2]: dissociated from lipid nanoparticles at a slower rate than LD03-DEX | prodrug dissociation rate from LNP ([2]; listed as LD02): dissociates from LNP at a slower rate than that of LD03 | prodrug degradation over 24 h in purified esterase [3]: progressively degraded | release of active drug (UPLC chromatogram) in purified esterase ([3]; LNP): a peak corresponding to active dexamethasone (DEX) appeared | prodrug degradation over 24 h in mouse plasma [4]: progressively degraded | prodrug cleavage/degradation after 1 h in plasma ([4]; LNP): virtually no degradation | release of active drug (UPLC chromatogram) in mouse plasma ([4]; LNP): a peak corresponding to active dexamethasone (DEX) appeared | % Entrapment PC-Chol LNP [5]: 100% | % Entrapment [ionizable LNP] [5]: [99] % | Particle size (PDI) PC-Chol LNP [6]: 53 (0.05) nm | Particle size (PDI) [ionizable LNP] [6]: [49 (0.05)] nm

CCCCC/C=C\C/C=C\CCCCCCCCOC(=O)CCC(=O)OCC(=O)[C@@]1(O)[C@H](C)C[C@H]2[C@@H]3CCC4=CC(=O)C=C[C@]4(C)[C@@]3(F)[C@@H](O)C[C@@]21C [LD03-DEX, linoleyl 2-((8S,9R,10S,11S,13S,14S,16R,17R)-9-fluoro-11,17-dihydroxy-10,13,16-trimethyl-3-oxo-6,7,8,9,10,11,12,13,14,15,16,17-dodecahydro-3H-cyclopenta[a]phenanthren-47-yl)-2-oxoethyl succinate]
plasma TNFα and KC/GRO levels versus control LNP-CpG [1]: marked reduction in cytokine levels | prodrug degradation over 24 h in purified esterase [3]: progressively degraded | prodrug cleavage in PBS containing isolated esterases ([3]; LNP, 1 or 4 h incubation): progressive prodrug cleavage | release of active drug (UPLC chromatogram) in purified esterase ([3]; LNP): a peak corresponding to active dexamethasone (DEX) appeared | IL1β expression versus control LNP without prodrug [7]: able to reduce IL1β expression | plasma cytokine levels versus control LNP-mRNA ([8]; 3 mg/kg): significantly reduced levels | plasma cytokine levels versus control LNP-mRNA ([8]; listed as LD03, 3 mg/kg): suppresses the immunostimulatory effects of LNP-mRNA | prodrug degradation over 24 h in mouse plasma [4]: progressively degraded; also recorded: degraded at a faster rate than LD02-DEX | prodrug cleavage in plasma ([4]; LNP, 1 or 4 h incubation in plasma): progressive prodrug cleavage | prodrug cleavage/degradation after 1 h in plasma ([4]; LNP): significant cleavage | release of active drug (UPLC chromatogram) in mouse plasma ([4]; LNP): a peak corresponding to active dexamethasone (DEX) appeared | % Entrapment PC-Chol LNP [5]: 94% | % Entrapment [ionizable LNP] [5]: [100] % | prodrug degradation over 24 h in purified esterase [9]: degraded at a faster rate than LD02-DEX | plasma cytokine levels versus control LNP-pDNA ([10]; 1 mg/kg): efficiently suppressed cytokine levels | plasma cytokine levels versus control LNP-pDNA ([10]; listed as LD03, 1 mg/kg): suppresses the immunostimulatory effects of LNP-pDNA | Particle size (PDI) PC-Chol LNP [6]: 64 (0.06) nm | Particle size (PDI) [ionizable LNP] [6]: [48 (0.04)] nm
